From patent US20080039508A1, “Treatment Of Tumours” (AQ+PLC, priority 2004, published 2008)

## Oc1cccc2cccnc12 [8-hydroxyquinoline]
  solubility in aqueous solution: generally insoluble or only poorly soluble
